Test results as given in article PMC4127372 (Journal of pharmaceutical and biomedical analysis, 2014).

Conditions: pre-tested baboon plasma following intravenous infusion

In the case of `CCCCCCCCCCNCCN[C@@]1(C)C[C@H](O[C@H]2[C@H](Oc3c4cc5cc3Oc3ccc(cc3Cl)[C@@H](O)[C@@H](NC(=O)[C@@H](CC(C)C)NC)C(=O)N[C@@H](CC(N)=O)C(=O)N[C@H]5C(=O)N[C@H]3C(=O)N[C@H](C(=O)N[C@H](C(=O)O)c5cc(O)c(CNCP(=O)(O)O)c(O)c5-c5cc3ccc5O)[C@H](O)c3ccc(c(Cl)c3)O4)O[C@H](CO)[C@@H](O)[C@@H]2O)O[C@@H](C)[C@H]1O` [telavancin], the “lowest concentration of telavancin determined in pre-tested baboon plasma” value is reported as “approximately 200 ng/ml”.
